Measured values published in patent US6984729B1, “Oligonucleotides specific for hepatitis B virus” (priority 1995, dated 2006).
pIC50: −log10 of the molar value. Strand notation (5' to 3'): a small letter for the sugar, then the base; units joined by * are phosphorothioate-linked, units joined directly phosphodiester-linked; [ ] holds rarer units or linkages, { } end groups; capitals alone tell only the bases. d = 2'-deoxy (DNA)

How the values were obtained:
[1] = system: In vitro transcribed HBV RNA (adw strain); assay: RNase H cleavage assay with contiguous oligodeoxynucleotide phosphorothioates (FIG. 2); type: biochemical, hepatitis B virus; settings: end-labelled HBV RNA (adw), regions found with random 20mer library
Protocol: To determine whether an oligonucleotide of the invention is capable of successfully hybridizing to its target, an RNase H assay was performed (Frank et al. (1993) Proc. Int. Conf. Nucleic Acid Med. Applns. 1:4.14(abstract)). This assay is useful when a region of at least four contiguous nucleotides of the oligonucleotide is DNA and the target is RNA. Hybridization of the DNA portion of the oligonucleotide to the RNA target is identified by cleavage at that site by RNase H.
In vitro transcribed HBV RNA (adw strain) was probed for sites accessible to oligonucleotide hybridization using a randomized library of 20 base oligodeoxynucleotides (approximately […]). Hybridization to the RNA was detected by RNase H cleavage of the end-labelled transcript. Three regions were identified by this assay. One region was in the 5′ untranslated region, between 113 and 70 bases upstream from the core initiator, and two regions were in the coding regionfor core, between 78 and 174 bases downstream from the core initiator. Contiguous oligodeoxynucleotide phosphorothioates were prepared against these regions and their ability to activate RNase H cleavage of the transcript measured.
The plasmid pHBVE+was generated by subcloning a StuI, BamHI fragment from the plasmid pAM6 (ATCC Ac. No. 45020, American Type Culture Collection, Rockville, Md.), representing HBV subtype adw nt 1701-nt 34 (GenBank accession # V00866) (Ono et al. (1983) Nucleic Acids Res. 11:1747–1757), into pBluescript II SK(+) (Stratagene, La Jolla, Calif.). […]
In 9 μl 1× RNase H buffer (40 mM Tris-HCl pH 7.4, 4 mM MgCl2, 1 mM DTT), 20–100 nM labelled RNA and 100 nM oligonucleotides were preincubated for 15 min at 37° C. […] The reactions were quenched and analyzed as described above.
Quantitation of the cleavage products was performed using software supplied with the Phosphorimager (Molecular Dynamics, Sunnyvale, Calif., or Bio-Rad Laboratories, Hercules, Calif.). “Counts” were determined by drawing a box around the band of interest and subtracting the background determined with a box drawn nearby. […]

[2] = system: HBV genomes in the supernatants from HepG2.2.15 cells; assay: Kinetic PCR HBV anti-viral assay on supernatants from HepG2.2.15 cells; type: cell-based, hepatitis B virus; settings: copy number of HBV genomes in HepG2.2.15 supernatants, day 10
Protocol: In addition to Southern hybridizations, kinetic PCR was performed to assay the supernatants from the HepG2.2.15 cells. This procedure was carried out as described by Higuchi et al. (Biotechnol. (1993) 11:1026–1030). All PCRs were carried out with two sets of external controls which consisted of a dilution series of a known concentration of plasmid DNA that contained the HBV core gene amplified with the same primer set. These controls generated a standard curve that was used to calculate the copy number of HBV genomes in the supernatants from cells exposed to the various dilutions of compound.
The anti-viral assay was performed using HepG 2.2.15 cells (Sells et al. ([…]) Proc. Natl. Acad. Sci. (USA) 84:1005–1009) seeded at a density of 1×10^5 per well in 24 well plates. The cells were grown to confluence and allowed to stabilize for 2–3 days in RPMI media (supplemented with 10% fetal calf serum (FCS), 2 mM glutamine and penstrep (Life Technologies Ltd., Paisley, Scotland) prior to the addition of the oligonucleotide (defined as day 0). Six dilutions (10, 5, 1, 0.5, 0.1, and 0 μM) were set up in duplicate for each of the antisense oligonucleotides. In each assay run, the nucleoside analog, β-L-(2R,5S)-1,3 oxathiolanyl cytosine (3TC) (Glaxo, Greenford, U.K.) was included as positive control at 0.5, 0.1, 0.075, 0.05, and 0.01 and 0 μM in duplicate. Oligonucleotide was added to 1 ml of RPMI media (supplemented with 3% FCS, 2 mM glutamine and penstrep) at each of the indicated dilutions. At days 2, 4 and 7, the old media was removed and replaced with fresh media containing compound. At day 10, the supernatants were harvested, clarified by low speed centrifugation, prior to the addition of Triton X100 (Sigma, St. Louis, Mo.) and tri-n-butyl phosphate to give a final concentration of 1%. The samples were then heated to 70° C. for 20 minutes to disrupt the viral particles.
Following this treatment, the viral particles were subject to analysis by kinetic PCR. The primers RJ407 (SEQ ID NO:51) and RJ431 (SEQ ID NO:52) were used to detect a 205 bp fragment of the core gene. Kinetic PCR was performed essentially as described by Higuchi et al. (Biotechnol. (1993) 11:1026–1030). Briefly, the PCR reactions were set up under standard conditions except that ethidium bromide was included at a concentration of 4 μg/ml. […] A kinetic PCR analysis was performed by plotting the average intensity of fluorescence from each PCR sample after each annealing/extension cycle against the cycle number. The original template concentration can be calculated by utilizing a standard fluorescence curve generated by templates of known concentration.

[3] = system: HBV subtype ayw polymerase gene-luciferase fusion construct; assay: Firefly luciferase reporter gene assay in stably transfected HepG2 cells (pol-luciferase fusion); type: cell-based; settings: versus random 20mer PS negative control, FIG. 9
Protocol: Oligonucleotides targeted to the polymerase translation initiation region were also tested in mammalian cells using a firefly luciferase reporter gene assay. The 35 nucleotide region spanning the translation start site of the HBV ayw polymerase gene from nt 2294–2328 was cloned 5′ to, and in frame with, the entire open reading frame of the firefly luciferase gene in the plasmid pGLori, to produce the plasmid pGLpol (FIG. 10). Transcription of this pol-luciferase gene fusion was placed under the control of the cytomegalovirus early gene promoter. Expression of the pol-luciferase fusion in mammalian cells was quantified in a luminometer by addition of luciferin substrate and ATP cofactor to cell lysates. In all cellular antisense assays, a random sequence 20mer phosphorothioate oligonucleotide (random 20mer PS) was used as a negative control. […]
Stably transfected HepG2 cells were seeded into 96 well plates. […] Cells were washed twice with Dulbecco's phosphate-buffered saline (PBS) and lysed in 50 μl cell lysis buffer (Analytical Luminescence Laboratory, San Diego, Calif.). Luciferase activity was measured in 20 μl lysate using Analytical Luminescence Laboratory substrates in a MicroLumat LB 96 P luminometer (EG&G Berthold, Nashua, N.H.).

| Sequence | ability to activate RNase H cleavage of the transcript [1] | pIC50 [2] | antisense activity on luciferase expression [3] |
| --- | --- | --- | --- |
| GAAAAAGTTGCATGGTGCTG (antisense dG*dA*dA*dA*dA*dA*dG*dT*dT*dG*dC*dA*dT*dG*dG*dT*dG*dC*dT*dG) [HBV44] | single peaks of activity | 6.15 | – |
| GAGGCGGTGTCTAGGAGATC (antisense dG*dA*dG*dG*dC*dG*dG*dT*dG*dT*dC*dT*dA*dG*dG*dA*dG*dA*dT*dC) [HBV57] | single peaks of activity | – | – |
| GATAGGGGCATTTGGTGGTC (phosphorothioate, further chemistry not given here) [HBVpol-2] | – | 5.43 | had sequence-specific antisense activity |
| GCAGTATGGTGAGGTGAGCA (antisense dG*dC*dA*dG*dT*dA*dT*dG*dG*dT*dG*dA*dG*dG*dT*dG*dA*dG*dC*dA) [HBV41] | single peaks of activity | – | – |
| GGCATTTGGTGGTCTATAAG (antisense dG*dG*dC*dA*dT*dT*dT*dG*dG*dT*dG*dG*dT*dC*dT*dA*dT*dA*dA*dG) [HBVpol-1] | – | – | had sequence-specific antisense activity |
